# In patent publication US8445492B2, “Method for inhibiting growth of cancer cells and cell telomere and diseases of cell proliferation by using heteroannelated anthraquinone derivative compounds” (National Defense Medical Center, priority 2008, dated 2013):
# Legend:
# Format in all cases: cell-based
# SK-MEL-5 = assay: NCI DTP in-vitro dose response, Melanoma
# SK-MEL-2 = assay: NCI DTP in-vitro dose response, Melanoma
# M14 = assay: NCI DTP in-vitro dose response, Melanoma
# UACC-62 = assay: NCI DTP in-vitro dose response, Melanoma
# LOX IMVI = assay: NCI DTP in-vitro dose response, Melanoma
# SK-MEL-28 = assay: NCI DTP in-vitro dose response, Melanoma
# MALME-3M = assay: NCI DTP in-vitro dose response, Melanoma
# UACC-257 = assay: NCI DTP in-vitro dose response, Melanoma
# IGROV1 = assay: NCI DTP in-vitro dose response, Ovarian Cancer
# SK-OV-3 = assay: NCI DTP in-vitro dose response, Ovarian Cancer
# OVCAR-4 = assay: NCI DTP in-vitro dose response, Ovarian Cancer
# OVCAR-3 = assay: NCI DTP in-vitro dose response, Ovarian Cancer
# OVCAR-8 = assay: NCI DTP in-vitro dose response, Ovarian Cancer
# OVCAR-5 = assay: NCI DTP in-vitro dose response, Ovarian Cancer
structure (smiles),measurement,setting,value
O=C1c2ccccc2C(=O)c2c1ccc1nccnc21 [TABLE 5-5],CC50,SK-MEL-5,44.4 µM
same,TGI,SK-MEL-5,1.71E−5
same,Percent Growth,SK-MEL-5; Log10 Concentration −4.0,−92%
same,Percent Growth,SK-MEL-5; Log10 Concentration −5.0,28%
same,Percent Growth,SK-MEL-5; Log10 Concentration −6.0,82%
same,Percent Growth,SK-MEL-5; Log10 Concentration −7.0,90%
same,Percent Growth,SK-MEL-5; Log10 Concentration −8.0,90%
same,GI50,SK-MEL-5; read-out: GI50,3.93 µM
same,CC50,SK-MEL-2,> 100 µM
same,TGI,SK-MEL-2,5.59E−5
same,Percent Growth,SK-MEL-2; Log10 Concentration −4.0,−20%
same,Percent Growth,SK-MEL-2; Log10 Concentration −5.0,58%
same,Percent Growth,SK-MEL-2; Log10 Concentration −6.0,102%
same,Percent Growth,SK-MEL-2; Log10 Concentration −7.0,85%
same,Percent Growth,SK-MEL-2; Log10 Concentration −8.0,97%
same,GI50,SK-MEL-2; read-out: GI50,12.7 µM
same,CC50,M14,> 100 µM
same,TGI,M14,>1.00E−4
same,Percent Growth,M14; Log10 Concentration −5.0,34%
same,Percent Growth,M14; Log10 Concentration −6.0,89%
same,Percent Growth,M14; Log10 Concentration −7.0,91%
same,Percent Growth,M14; Log10 Concentration −8.0,95%
same,GI50,M14; read-out: GI50,5.14 µM
same,CC50,UACC-62,> 100 µM
same,TGI,UACC-62,5.61E−5
same,Percent Growth,UACC-62; Log10 Concentration −4.0,−20%
same,Percent Growth,UACC-62; Log10 Concentration −5.0,60%
same,Percent Growth,UACC-62; Log10 Concentration −6.0,87%
same,Percent Growth,UACC-62; Log10 Concentration −7.0,84%
same,Percent Growth,UACC-62; Log10 Concentration −8.0,92%
same,GI50,UACC-62; read-out: GI50,13.3 µM
same,CC50,LOX IMVI,> 100 µM
same,TGI,LOX IMVI,3.89E−5
same,Percent Growth,LOX IMVI; Log10 Concentration −4.0,−22%
same,Percent Growth,LOX IMVI; Log10 Concentration −5.0,31%
same,Percent Growth,LOX IMVI; Log10 Concentration −6.0,81%
same,Percent Growth,LOX IMVI; Log10 Concentration −7.0,85%
same,Percent Growth,LOX IMVI; Log10 Concentration −8.0,90%
same,GI50,LOX IMVI; read-out: GI50,4.2 µM
same,CC50,SK-MEL-28,> 100 µM
same,TGI,SK-MEL-28,9.11E−5
same,Percent Growth,SK-MEL-28; Log10 Concentration −4.0,−3%
same,Percent Growth,SK-MEL-28; Log10 Concentration −5.0,75%
same,Percent Growth,SK-MEL-28; Log10 Concentration −6.0,104%
same,Percent Growth,SK-MEL-28; Log10 Concentration −7.0,101%
same,Percent Growth,SK-MEL-28; Log10 Concentration −8.0,100%
same,GI50,SK-MEL-28; read-out: GI50,21 µM
same,CC50,MALME-3M,70.8 µM
same,TGI,MALME-3M,2.07E−5
same,Percent Growth,MALME-3M; Log10 Concentration −4.0,−64%
same,Percent Growth,MALME-3M; Log10 Concentration −5.0,30%
same,Percent Growth,MALME-3M; Log10 Concentration −6.0,88%
same,Percent Growth,MALME-3M; Log10 Concentration −7.0,91%
same,Percent Growth,MALME-3M; Log10 Concentration −8.0,97%
same,GI50,MALME-3M; read-out: GI50,4.48 µM
same,CC50,UACC-257,> 100 µM
same,TGI,UACC-257,6.83E−5
same,Percent Growth,UACC-257; Log10 Concentration −4.0,−11%
same,Percent Growth,UACC-257; Log10 Concentration −5.0,58%
same,Percent Growth,UACC-257; Log10 Concentration −6.0,99%
same,Percent Growth,UACC-257; Log10 Concentration −7.0,88%
same,Percent Growth,UACC-257; Log10 Concentration −8.0,95%
same,GI50,UACC-257; read-out: GI50,13 µM
O=C1c2ccccc2C(=O)c2c1ccc1nccnc21 [TABLE 5-6],CC50,IGROV1,> 100 µM
same,GI50,IGROV1,2.55 µM
same,TGI,IGROV1,3.59E−5
same,Percent Growth,IGROV1; Log10 Concentration −4.0,−27%
same,Percent Growth,IGROV1; Log10 Concentration −5.0,33%
same,Percent Growth,IGROV1; Log10 Concentration −6.0,61%
same,Percent Growth,IGROV1; Log10 Concentration −7.0,74%
same,Percent Growth,IGROV1; Log10 Concentration −8.0,90%
same,CC50,SK-OV-3,> 100 µM
same,TGI,SK-OV-3,>1.00E−4
same,Percent Growth,SK-OV-3; Log10 Concentration −4.0,8%
same,Percent Growth,SK-OV-3; Log10 Concentration −5.0,44%
same,Percent Growth,SK-OV-3; Log10 Concentration −6.0,79%
same,Percent Growth,SK-OV-3; Log10 Concentration −7.0,89%
same,Percent Growth,SK-OV-3; Log10 Concentration −8.0,91%
same,GI50,SK-OV-3; read-out: GI50,6.95 µM
same,CC50,OVCAR-4,> 100 µM
same,TGI,OVCAR-4,>1.00E−4
same,Percent Growth,OVCAR-4; Log10 Concentration −4.0,3%
same,Percent Growth,OVCAR-4; Log10 Concentration −5.0,51%
same,Percent Growth,OVCAR-4; Log10 Concentration −6.0,74%
same,Percent Growth,OVCAR-4; Log10 Concentration −7.0,91%
same,Percent Growth,OVCAR-4; Log10 Concentration −8.0,102%
same,GI50,OVCAR-4; read-out: GI50,10.5 µM
same,CC50,OVCAR-3,> 100 µM
same,TGI,OVCAR-3,1.25E−5
same,Percent Growth,OVCAR-3; Log10 Concentration −4.0,−42%
same,Percent Growth,OVCAR-3; Log10 Concentration −5.0,4%
same,Percent Growth,OVCAR-3; Log10 Concentration −6.0,77%
same,Percent Growth,OVCAR-3; Log10 Concentration −7.0,95%
same,Percent Growth,OVCAR-3; Log10 Concentration −8.0,104%
same,GI50,OVCAR-3; read-out: GI50,2.34 µM
same,CC50,OVCAR-8,> 100 µM
same,TGI,OVCAR-8,>1.00E−4
same,Percent Growth,OVCAR-8; Log10 Concentration −4.0,13%
same,Percent Growth,OVCAR-8; Log10 Concentration −5.0,36%
same,Percent Growth,OVCAR-8; Log10 Concentration −6.0,83%
same,Percent Growth,OVCAR-8; Log10 Concentration −7.0,89%
same,Percent Growth,OVCAR-8; Log10 Concentration −8.0,97%
same,GI50,OVCAR-8; read-out: GI50,5.07 µM
same,CC50,OVCAR-5,> 100 µM
same,TGI,OVCAR-5,>1.00E−4
same,Percent Growth,OVCAR-5; Log10 Concentration −4.0,19%
same,Percent Growth,OVCAR-5; Log10 Concentration −5.0,77%
same,Percent Growth,OVCAR-5; Log10 Concentration −6.0,98%
same,Percent Growth,OVCAR-5; Log10 Concentration −7.0,90%
same,Percent Growth,OVCAR-5; Log10 Concentration −8.0,97%
same,GI50,OVCAR-5; read-out: GI50,59.3 µM
